The values below come from patent US7115382B1, “Method for detecting IGFBP-4 protease without detecting IGFBP-4 protease/proMBP Complex” (Mayo Foundation for Medical Education and Research, priority 1999, dated 2006).

For the test, the system named is HEK 293 cells. In words: Flow cytometry of PAPP-A binding to the cell surface. It counts as cell-based, human. The following applies: HEK 293 cells transfected with rPAPP-A cDNA, mAb 234-2 detection. The protocol:
Flow cytometry was used to assess the binding of PAPP-A to the cell surface of HEK 293 cells either transfected with empty expression vector or with the vector containing cDNA encoding rPAPP-A (see Example 4 for a description of vectors and transfections). […] Fifty μl of the cell suspension was incubated with primary antibody (final concentration 5 μg/ml purified PAPP-A specific mAb 234-2) on ice for 30 min. Cells were then washed three times with L15/FBS and incubated with fluorescein isothiocyanate-conjugated goat anti-mouse IgG (heavy and light chain, Zymed Laboratories, San Francisco, Calif.) for 30 min on ice. Cells were fixed in buffer with 1% formaldehyde before flow cytometry on a Becton Dickinson instrument. […] Similar results were obtained with other PAPP-A monoclonal antibodies (234-3, 234-4, 234-5, and 234-7).
In general terms: In flow cytometry, cells or beads pass a laser one at a time.

In the case of “PAPP-A: pregnancy-associated plasma protein-A, the IGF-dependent IGFBP-4 protease”, the “Binding to the cell surface” value is reported as “binds to the surface of HEK 293 cells”.
